Data: article PMC5516028, “Molecular tools for GABAA receptors: High affinity ligands for β1-containing subtypes” (Scientific Reports, 2017)

Assays:
Type in all cases: cell-based
α6β3γ2 GABAA receptors = biological target: T1, α6β3γ2 GABAA receptors (Rattus norvegicus, UniProt P30191+P63079); experiment: Two electrode voltage clamp in Xenopus laevis oocytes, α6β3γ2
T1 construct: expressed in transfected cells; host or cells: Xenopus laevis oocytes, mRNA injected
Description: (§1) cDNA’s of rat GABAA receptor subunits α1, α4, β1, β2, β3 and γ2S were cloned as described. cDNAs of the rat subunits α2, α3 and α5 were gifts from P. Malherbe, that of α6 and γ1 were gifts of P. Seeburg and that of δ was a gift of C. Czajkowski. The mutants were constructed using the Q5 Site-Directed Mutagenesis Kit (New England Biolabs) following manufacturer’s instruction. We used the wild-type rat β3-pCI vector as template and the primers […] and […] resulting in a substitution of amino acid N41 (AAC) to R (AGG). We used the wild-type rat β1-pCI vector as template and the primers […] and […] resulting in a substitution of amino acid R41 (CGG) to N (AAC). The mutated subunits were confirmed by sequencing.
(§2) In vitro transcription of mRNA was based on the cDNA expression vectors encoding for rat GABAA receptor subunits α1–6, β1-3, γ1,2, δ and the two β mutants (β1R41N and β3N41R)[40]. After linearizing the cDNA vectors with appropriate restriction endonucleases, the cDNA was purified and concentrated with the DNA Clean and Contentrator ^TM Kit (Zymoresearch, Catalog No. D4005). Capped transcripts of the purified cDNA were produced using the mMESSAGE mMACHINE® T7 transcription kit (Ambion, TX, USA) and polyadenylated using the Ambion PolyA tailing kit (Ambion). After transcription and polyadenylation the RNA was purified with the MEGAclear ^TM Kit (Ambion, Catalog No. AM1908). The final RNA concentration was measured on NanoDrop® ND-1000 and finally diluted and stored in diethylpyrocarbonate-treated water at −80 °C. For the microinjection, the RNA of αβ receptor combinations was mixed at 1:1 ratio (which leads to αβ receptors that consist of predominantly 3 beta and 2 alpha subunits[27]), for αkβlγm (k = 1–3, l = 1, 3, m = 1, 2) receptors at 1:1:5 ratio, for αkβ3γ2 (k = 4–6) and αkβlδ (k = 1, 4 and 6, l = 1, 3) receptor combinations at 3:1:5 ratio.
(§3) Mature female Xenopus laevis (Nasco, WI) were anesthetized in a bath of ice-cold 0.17% Tricain (Ethyl-m-aminobenzoate, Sigma, MO) before decapitation in full accordance with all rules of the Austrian animal protection law (see http://www.ris.bka.gv.at/Dokumente/BgblAuth/BGBLA_2012_I_114/BGBLA_2012_I_114.pdf) and the Austrian animal experiment by-laws (see https://www.ris.bka.gv.at/Dokumente/BgblAuth/BGBLA_2012_II_522/BGBLA_2012_II_522.pdf) which implement the European Directive 2010/63/EU (see http://eur-lex.europa.eu/LexUriServ/LexUriServ.do?uri=OJ:L:2010:276:0033:0079:en:PDF) into the Austrian law (all information accessed on July 27, 2016). The frog’s ovaries were transferred to ND96 medium (96 mM NaCl, 2 mM KCl, 1 mM MgCl2, 5 mM HEPES; pH 7.5). Stage 5–6 oocytes with the follicle cell layer around them were roughly dissected with forceps into packages of 10–15 cells and washed in Ca^2+-free ND96 medium. Cells were then digested with collagenase (type IA, Sigma, NO, 1 mg/mL ND96) at 18 °C shaking at 30 rpm for 30–60 minutes and gently defolliculated with the aid of a glass pipette with appropriate tip diameter and a platinum loop. Defolliculated cells were stored at 18 °C for at least 6 hours in ND96 solution containing penicillin G (10000 IU/100 mL) and streptomycin (10 mg/100 mL) in order to preselect and exclude damaged cells from further treatment. Healthy defolliculated oocytes were injected with an aqueous solution of mRNA. A total of 4.5 ng of mRNA per oocyte was injected with a Nanoject II (Drummond). After injection of mRNA, oocytes were incubated at 18 °C (ND96 + antibiotic) for 2–3 days for αβ receptors and for 3–4 days for αβγ or αβδ receptors before recording. When cells were measured at later time points, oocytes were stored at +4 °C instead of 18 °C.
(§4) For electrophysiological recordings, oocytes were placed on a nylon-grid in a bath of Ca^2+-containing NDE solution medium [96 mM NaCl, 5 mM HEPES-NaOH (pH 7.5), 2 mM KCl, 1 mM MgCl2, 1.8 mM CaCl2].

α2β3 GABAA receptors = biological target: T2, α2β3 GABAA receptors (Rattus norvegicus, UniProt P23576+P63079); experiment: Two electrode voltage clamp in Xenopus laevis oocytes, α2β3; details: α2β3
T2 construct: expressed in transfected cells; host or cells: Xenopus laevis oocytes, mRNA injected
T2 sequence (P23576 29-451): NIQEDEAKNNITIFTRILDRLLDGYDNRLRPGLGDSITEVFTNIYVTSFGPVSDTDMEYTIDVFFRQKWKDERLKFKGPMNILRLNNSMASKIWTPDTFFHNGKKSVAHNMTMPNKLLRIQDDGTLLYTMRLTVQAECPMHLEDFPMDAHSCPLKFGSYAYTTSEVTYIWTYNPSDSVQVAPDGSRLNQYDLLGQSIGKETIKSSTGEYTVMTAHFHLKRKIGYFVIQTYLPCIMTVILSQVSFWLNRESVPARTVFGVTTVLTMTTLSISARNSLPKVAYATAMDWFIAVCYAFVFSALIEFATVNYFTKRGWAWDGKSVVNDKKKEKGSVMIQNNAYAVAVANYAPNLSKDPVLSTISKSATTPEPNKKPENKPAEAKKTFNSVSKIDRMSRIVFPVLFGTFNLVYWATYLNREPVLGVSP
T2 sequence (P63079 26-473): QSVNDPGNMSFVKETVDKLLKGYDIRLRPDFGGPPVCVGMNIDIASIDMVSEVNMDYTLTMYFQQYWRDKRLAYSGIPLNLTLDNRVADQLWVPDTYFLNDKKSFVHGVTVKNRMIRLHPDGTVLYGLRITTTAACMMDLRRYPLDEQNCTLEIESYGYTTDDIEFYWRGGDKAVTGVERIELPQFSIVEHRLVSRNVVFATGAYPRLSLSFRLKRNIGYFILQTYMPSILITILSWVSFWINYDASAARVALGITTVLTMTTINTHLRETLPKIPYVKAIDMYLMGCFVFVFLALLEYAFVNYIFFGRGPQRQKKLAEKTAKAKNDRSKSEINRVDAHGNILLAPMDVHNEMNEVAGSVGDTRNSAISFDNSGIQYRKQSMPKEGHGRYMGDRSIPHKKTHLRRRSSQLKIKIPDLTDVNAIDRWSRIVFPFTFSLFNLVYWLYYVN
Description: as §1, §2, §3, §4

α5β3 GABAA receptors = biological target: T3, α5β3 GABAA receptors (Rattus norvegicus, UniProt P19969+P63079); experiment: Two electrode voltage clamp in Xenopus laevis oocytes, α5β3
T3 construct: expressed in transfected cells; host or cells: Xenopus laevis oocytes, mRNA injected
T3 sequence (P19969 32-464 limits assumed): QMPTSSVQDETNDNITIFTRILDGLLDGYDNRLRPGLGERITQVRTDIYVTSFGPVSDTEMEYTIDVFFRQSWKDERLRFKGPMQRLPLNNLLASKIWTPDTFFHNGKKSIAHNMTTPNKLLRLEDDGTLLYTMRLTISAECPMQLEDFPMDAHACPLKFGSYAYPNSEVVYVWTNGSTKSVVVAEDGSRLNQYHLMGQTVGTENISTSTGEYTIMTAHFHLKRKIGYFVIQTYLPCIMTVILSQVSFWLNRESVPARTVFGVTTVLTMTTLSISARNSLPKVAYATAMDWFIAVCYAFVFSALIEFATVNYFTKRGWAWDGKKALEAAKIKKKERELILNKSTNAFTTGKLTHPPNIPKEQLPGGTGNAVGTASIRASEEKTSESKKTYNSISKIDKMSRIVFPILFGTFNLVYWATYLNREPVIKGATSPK
T3 sequence (P63079 26-473): as the sequence (P63079 26-473) above
Description: as §1, §2, §3, §4

α3β3γ2 GABAA receptors = biological target: T4, α3β3γ2 GABAA receptors (Rattus norvegicus, UniProt P20236+P63079); experiment: Two electrode voltage clamp in Xenopus laevis oocytes, α3β3γ2
T4 construct: expressed in transfected cells; host or cells: Xenopus laevis oocytes, mRNA injected
T4 sequence (P20236 29-493): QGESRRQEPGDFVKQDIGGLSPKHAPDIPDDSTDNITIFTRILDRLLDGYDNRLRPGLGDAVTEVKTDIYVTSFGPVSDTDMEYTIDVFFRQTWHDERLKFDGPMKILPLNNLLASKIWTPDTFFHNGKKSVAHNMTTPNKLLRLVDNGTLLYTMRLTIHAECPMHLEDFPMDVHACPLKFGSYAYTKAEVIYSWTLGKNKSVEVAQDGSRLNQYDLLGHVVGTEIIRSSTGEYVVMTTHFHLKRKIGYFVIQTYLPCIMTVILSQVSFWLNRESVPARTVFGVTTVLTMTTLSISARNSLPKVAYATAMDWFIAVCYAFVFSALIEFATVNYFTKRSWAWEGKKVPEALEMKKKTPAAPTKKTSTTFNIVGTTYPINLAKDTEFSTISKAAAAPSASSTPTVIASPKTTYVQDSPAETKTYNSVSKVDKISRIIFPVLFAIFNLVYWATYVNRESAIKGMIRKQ
T4 sequence (P63079 26-473): as the sequence (P63079 26-473) above
T4 sequence (P18508 39-466 partner): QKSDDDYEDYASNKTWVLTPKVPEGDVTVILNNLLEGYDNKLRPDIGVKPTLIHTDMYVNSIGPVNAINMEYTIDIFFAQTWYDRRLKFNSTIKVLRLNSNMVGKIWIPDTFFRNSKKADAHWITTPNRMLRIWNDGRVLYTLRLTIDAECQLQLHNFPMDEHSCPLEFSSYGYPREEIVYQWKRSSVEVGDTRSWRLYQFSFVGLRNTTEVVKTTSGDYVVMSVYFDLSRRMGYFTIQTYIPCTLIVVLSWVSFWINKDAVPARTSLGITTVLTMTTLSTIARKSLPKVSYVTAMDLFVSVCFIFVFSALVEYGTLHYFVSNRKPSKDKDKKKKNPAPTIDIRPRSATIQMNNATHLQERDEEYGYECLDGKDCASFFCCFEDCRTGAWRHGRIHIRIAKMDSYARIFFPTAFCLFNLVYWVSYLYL
Description: as §1, §2, §3, §4

α1β3γ2 GABAA receptors = biological target: T5, α1β3γ2 GABAA receptors (Rattus norvegicus, UniProt P62813+P63079); experiment: Two electrode voltage clamp in Xenopus laevis oocytes, α1β3γ2
T5 construct: expressed in transfected cells; host or cells: Xenopus laevis oocytes, mRNA injected
T5 sequence (P62813 28-455): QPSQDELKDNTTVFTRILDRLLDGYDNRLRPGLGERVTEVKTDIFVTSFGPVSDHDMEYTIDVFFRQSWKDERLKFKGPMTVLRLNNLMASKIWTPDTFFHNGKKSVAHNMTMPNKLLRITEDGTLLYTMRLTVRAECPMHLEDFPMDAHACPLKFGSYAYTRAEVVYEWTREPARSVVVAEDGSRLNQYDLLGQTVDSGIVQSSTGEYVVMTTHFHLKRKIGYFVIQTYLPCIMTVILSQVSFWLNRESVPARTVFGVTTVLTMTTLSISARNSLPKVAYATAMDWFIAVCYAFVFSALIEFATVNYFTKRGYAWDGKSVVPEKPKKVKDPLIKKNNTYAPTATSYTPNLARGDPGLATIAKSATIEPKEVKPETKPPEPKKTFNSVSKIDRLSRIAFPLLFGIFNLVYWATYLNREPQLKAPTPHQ
T5 sequence (P63079 26-473): as the sequence (P63079 26-473) above
T5 sequence (P18508 39-466 partner): as the sequence (P18508 39-466 partner) above
Description: as §1, §2, §3, §4

α5β3γ2 GABAA receptors = biological target: T6, α5β3γ2 GABAA receptors (Rattus norvegicus, UniProt P19969+P63079); experiment: Two electrode voltage clamp in Xenopus laevis oocytes, α5β3γ2
T6 construct: expressed in transfected cells; host or cells: Xenopus laevis oocytes, mRNA injected
T6 sequence (P19969 32-464 limits assumed): as the sequence (P19969 32-464 limits assumed) above
T6 sequence (P63079 26-473): as the sequence (P63079 26-473) above
T6 sequence (P18508 39-466 partner): as the sequence (P18508 39-466 partner) above
Description: as §1, §2, §3, §4

α2β3γ2 GABAA receptors = biological target: T7, α2β3γ2 GABAA receptors (Rattus norvegicus, UniProt P23576+P63079); experiment: Two electrode voltage clamp in Xenopus laevis oocytes, α2β3γ2
T7 construct: expressed in transfected cells; host or cells: Xenopus laevis oocytes, mRNA injected
T7 sequence (P23576 29-451): as the sequence (P23576 29-451) above
T7 sequence (P63079 26-473): as the sequence (P63079 26-473) above
T7 sequence (P18508 39-466 partner): as the sequence (P18508 39-466 partner) above
Description: as §1, §2, §3, §4

[1] = read-out: efficacy, % of control current (GABA EC3-5 = 100%), 1 nM
[2] = read-out: efficacy, % of control current (GABA EC3-5 = 100%), 10 nM
[3] = read-out: efficacy, % of control current (GABA EC3-5 = 100%), 100 nM
[4] = read-out: efficacy, % of control current (GABA EC3-5 = 100%), 1 µM
[5] = read-out: efficacy, % of control current (GABA EC3-5 = 100%), 10 µM
[6] = read-out: efficacy, % of control current (GABA EC3-5 = 100%), 300 nM

T1 sequence (P30191 20-453): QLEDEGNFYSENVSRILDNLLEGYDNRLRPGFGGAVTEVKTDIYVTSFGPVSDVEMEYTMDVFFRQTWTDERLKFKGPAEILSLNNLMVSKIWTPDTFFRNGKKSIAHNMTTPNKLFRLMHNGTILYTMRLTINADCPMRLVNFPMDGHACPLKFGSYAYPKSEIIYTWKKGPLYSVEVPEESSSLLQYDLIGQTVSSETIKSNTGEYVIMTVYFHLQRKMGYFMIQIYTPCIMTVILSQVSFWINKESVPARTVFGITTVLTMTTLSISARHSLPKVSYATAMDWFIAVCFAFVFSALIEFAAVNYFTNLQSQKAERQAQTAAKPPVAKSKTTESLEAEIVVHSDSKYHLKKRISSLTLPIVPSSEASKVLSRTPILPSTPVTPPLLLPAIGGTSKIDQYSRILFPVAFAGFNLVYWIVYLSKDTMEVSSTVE
T1 sequence (P63079 26-473): as the sequence (P63079 26-473) above
T1 sequence (P18508 39-466 partner): as the sequence (P18508 39-466 partner) above

EC50 (α6β3γ2 GABAA receptors; co-applied with GABA EC3-5): > 5 µM
activity at 0.001 µM (α6β3γ2 GABAA receptors; [1]): 106 ± 6.6%
activity at 0.01 µM (α6β3γ2 GABAA receptors; [2]): 114 ± 8.8%
activity at 0.1 µM (α6β3γ2 GABAA receptors; [3]): 152 ± 12%
activity at 1 µM (α6β3γ2 GABAA receptors; [4]): 297 ± 16.2%
activity at 10 µM (α6β3γ2 GABAA receptors; [5]): > 1000%
activity at 0.001 µM (α2β3 GABAA receptors; [1]): 100%
activity at 0.01 µM (α2β3 GABAA receptors; [2]): 100%
activity at 0.3 µM (α2β3 GABAA receptors; [6]): 123 ± 4.9%
activity at 1 µM (α2β3 GABAA receptors; [4]): 127 ± 9.8%
activity at 3 µM (α2β3 GABAA receptors; read-out: efficacy, % of control current (GABA EC3-5 = 100%), 3 µM): 254 ± 4%
EC50 (α2β3 GABAA receptors; log of EC50, sign as printed, read-out: LogEC50 (converted)): 15.8 µM
EC50 (α5β3 GABAA receptors): 6.1 µM
activity at 0.001 µM (α5β3 GABAA receptors; read-out: efficacy, % of control current (GABA EC3-5 = 100%), α5β3, 1 nM): 97.3 ± 1.2%
activity at 0.1 µM (α5β3 GABAA receptors; read-out: efficacy, % of control current (GABA EC3-5 = 100%), α5β3, 100 nM): 110 ± 3.6%
activity at 0.3 µM (α5β3 GABAA receptors; read-out: efficacy, % of control current (GABA EC3-5 = 100%), α5β3, 300 nM): 108 ± 6.3%
activity at 1 µM (α5β3 GABAA receptors; read-out: efficacy, % of control current (GABA EC3-5 = 100%), α5β3, 1 µM): 132 ± 3.8%
activity at 3 µM (α5β3 GABAA receptors; read-out: efficacy, % of control current (GABA EC3-5 = 100%), α5β3, 3 µM): 190 ± 22.9%
activity at 30 µM (α5β3 GABAA receptors; read-out: efficacy, % of control current (GABA EC3-5 = 100%), α5β3, 30 µM): 232 ± 21.5%
EC50 (α3β3γ2 GABAA receptors; co-applied with GABA EC3-5): 7.2 µM
activity at 0.001 µM (α3β3γ2 GABAA receptors; [1]): 100%
activity at 0.1 µM (α3β3γ2 GABAA receptors; [3]): 109 ± 1%
activity at 10 µM (α3β3γ2 GABAA receptors; [5]): 305 ± 71%
EC50 (α1β3γ2 GABAA receptors; co-applied with GABA EC3-5, read-out: EC50): 4.4 µM
activity at 0.001 µM (α1β3γ2 GABAA receptors; [1]): 100%
activity at 0.01 µM (α1β3γ2 GABAA receptors; [2]): 108 ± 4%
activity at 0.1 µM (α1β3γ2 GABAA receptors; [3]): 108 ± 4%
activity at 0.3 µM (α1β3γ2 GABAA receptors; [6]): 128 ± 5.6%
activity at 1 µM (α1β3γ2 GABAA receptors; [4]): 156 ± 19%
activity at 10 µM (α1β3γ2 GABAA receptors; [5]): 423 ± 106%
activity at 30 µM (α1β3γ2 GABAA receptors; read-out: efficacy, % of control current (GABA EC3-5 = 100%), 30 µM): 534 ± 136%
Emax (α1β3γ2 GABAA receptors; read-out: maximum efficacy / modulatory effects up to): ~600%
EC50 (α5β3γ2 GABAA receptors): 6.4 µM
activity at 0.001 µM (α5β3γ2 GABAA receptors; read-out: efficacy, % of control current (GABA EC3-5 = 100%), α5β3γ2, 1 nM): 93.3 ± 5.7%
activity at 0.01 µM (α5β3γ2 GABAA receptors; read-out: efficacy, % of control current (GABA EC3-5 = 100%), α5β3γ2, 10 nM): 95.1 ± 6.9%
activity at 0.1 µM (α5β3γ2 GABAA receptors; read-out: efficacy, % of control current (GABA EC3-5 = 100%), α5β3γ2, 100 nM): 97.7 ± 11.5%
activity at 0.3 µM (α5β3γ2 GABAA receptors; read-out: efficacy, % of control current (GABA EC3-5 = 100%), α5β3γ2, 300 nM): 103 ± 14.9%
activity at 1 µM (α5β3γ2 GABAA receptors; read-out: efficacy, % of control current (GABA EC3-5 = 100%), α5β3γ2, 1 µM): 123 ± 16.5%
activity at 10 µM (α5β3γ2 GABAA receptors; read-out: efficacy, % of control current (GABA EC3-5 = 100%), α5β3γ2, 10 µM): 220 ± 31.1%
activity at 30 µM (α5β3γ2 GABAA receptors; read-out: efficacy, % of control current (GABA EC3-5 = 100%), α5β3γ2, 30 µM): 266 ± 41%
Emax (α5β3γ2 GABAA receptors; α5-containing subtype (α5β3γ2), read-out: maximum efficacy): ~200%
EC50 (α2β3γ2 GABAA receptors): 5.5 µM
activity at 0.001 µM (α2β3γ2 GABAA receptors; read-out: efficacy, % of control current (GABA EC3-5 = 100%), α2β3γ2, 1 nM): 100%
activity at 0.01 µM (α2β3γ2 GABAA receptors; read-out: efficacy, % of control current (GABA EC3-5 = 100%), α2β3γ2, 10 nM): 108 ± 4.2%
activity at 0.1 µM (α2β3γ2 GABAA receptors; read-out: efficacy, % of control current (GABA EC3-5 = 100%), α2β3γ2, 100 nM): 111 ± 2.3%
activity at 0.3 µM (α2β3γ2 GABAA receptors; read-out: efficacy, % of control current (GABA EC3-5 = 100%), α2β3γ2, 300 nM): 134%
activity at 1 µM (α2β3γ2 GABAA receptors; read-out: efficacy, % of control current (GABA EC3-5 = 100%), α2β3γ2, 1 µM): 137 ± 5.5%
activity at 10 µM (α2β3γ2 GABAA receptors; read-out: efficacy, % of control current (GABA EC3-5 = 100%), α2β3γ2, 10 µM): 470 ± 50%
activity at 30 µM (α2β3γ2 GABAA receptors; read-out: efficacy, % of control current (GABA EC3-5 = 100%), α2β3γ2, 30 µM): 580%
SMILES: Cc1ccc(-n2nc3c4cc(Cl)ccc4[nH]cc-3c2=O)cc1 [Compound 2, 8-Chloro-2-(4-methylphenyl)-2H-pyrazolo[4,3-c]quinolin-3(5H)-one]
